Consider 16 molecules from ChEMBL document CHEMBL4616670, “Phosphine Oxides from a Medicinal Chemist's Perspective: Physicochemical and in Vitro Parameters Relevant for Drug Discovery” (J Med Chem, 2020).

The nature of data set [1]: Basic dissociation constant, pKb of the compound by UV absorption spectra analysis or potentiometric titration technique. The class given is physicochemical.
The conditions of data set [2]: 168 h.
Description: Chemical stability of the compound in MeOH/NH3 solution at pH >10 assessed as compound decomposition measured after 7 days by UV-RP-HPLC analysis
The nature of data set [3]: physchem. As to conditions: octanol/water, pH 2.
Description: Octanol/water partition coefficient, log D of the compound at pH 2
Data set [4] is described as follows: physchem. To be noted: octanol/water, pH 11.
Description: Octanol/water partition coefficient, log D of the compound at pH 11
The nature of data set [5]: in vitro. To be noted: human, liver microsomes. A general note: Microsomes from liver hold many membrane-bound enzymes, among them those of drug oxidation.
Description: Half life in human liver microsomes at 1 uM incubated prior to NADPH addition by LC-MS/MS analysis
Data set [6] can be described thus: in vitro. To be noted: human, liver microsomes. This is another data set of the same source.
Description: Stability in human liver microsomes at 1 uM incubated prior to NADPH addition by LC-MS/MS analysis relative to hepatic blood flow
Data set [7] in a line: physchem. To be noted: pH 6.8 buffer.
Data set [8] can be described thus: physchem. To be noted: pH 6.8 buffer. The source holds these as a separate data set.
A short description of data set [9]: in vitro. To be noted: human, Caco-2.
Description: Permeability across apical to basolateral side in human Caco2 cells measured up to 2 hrs by LC-MS/MS analysis or scintillation counting method
Data set [10] is described as follows: in vitro. To be noted: human, Caco-2. The source holds these as a separate data set.
Description: Efflux ratio of permeability in human Caco2 cells measured up to 2 hrs by LC-MS/MS analysis or scintillation counting method
The nature of data set [11]: physchem. To be noted: MeOH/HCl solution.
Description: Chemical stability of the compound in MeOH/HCl solution at pH <1 assessed as compound decomposition measured after 7 days by UV-RP-HPLC analysis
Data set [12] can be described thus: in vitro. To be noted: human, plasma.
Description: Protein binding in human plasma
A short description of data set [13]: Chemical stability of the compound in MeOH/HCl solution at pH <1 assessed as compound decomposition measured after 1 day by UV-RP-HPLC analysis. The class given is physicochemical. To be noted: read-out: Drug degradation.

Converted amounts (≈) assume the structure as drawn. Some results are limits rather than exact numbers.

In general, pKb refers to −log10 of the Kb, conventionally taken in molar units. What is called logD is lipophilicity at a set pH, counting ionised and neutral species. Higher therefore signals higher lipophilicity. Broadly, the half-life is the time needed for the level to fall by half in the phase considered. For orientation: solubility (thermodynamic) means the concentration in solution at equilibrium with solid. In general, Papp A→B refers to the apparent permeability from the apical to the basolateral side of a cell layer. A low value points to slow passage. A word on the efflux ratio: it is the permeability from basolateral to apical divided by that in the opposite direction, in the common usage. In [1], `CC(C)N1CCP(=O)(c2ccc(C(F)(F)F)cc2)CC1` returned a negative-log Kb (pKb) of 7. The molecule further displayed a Drug degradation in data set [2] of less than 10%. Besides, the figures for the log distribution coefficient (logD) in [3] and in data set [4] were 0.2 and 2, respectively. This molecule also registered a half-life at 1 µM in [5] of more than 2.17 h. Moreover, the hepatic extraction ratio at 1 µM in [6] is less than 0.23. The solubility (thermodynamic) at 24 h was more than 68 µg/mL in [7] and 23000 µg/mL (≈ 75.3 mM) in [8]. For the same molecule, the apical-to-basolateral permeability (Papp A→B) at 2 h in data set [9] is 84 ×10⁻⁶ cm/s. Further, the efflux ratio at 2 h in data set [10] is 0.5. In [11], this molecule gave a degraded at 168 h of less than 10%.
As for `CN1CCP(=O)(c2ccc(C(F)(F)F)cc2)CC1`, in data set [1], the pKb came out at 6.3. In data set [2], this molecule yielded a Drug degradation of less than 10%. The results for the logD in data set [3] and in data set [4] were 0 and 0.9, respectively. In [5], the half-life at 1 µM was more than 2.17 h. Besides, the hepatic extraction ratio at 1 µM in data set [6] is less than 0.23. Besides, the thermodynamic solubility at 24 h in data set [7] was more than 66 µg/mL; in data set [8] it was more than 30000 µg/mL. In addition, in data set [9], the Papp A→B at 2 h stood at 52 ×10⁻⁶ cm/s. The efflux ratio at 2 h in [10] was found to be 0.7. The degraded at 168 h in [11] is less than 10%.
One may read the fraction unbound as the share of the substance not bound to proteins or other matrix. Read a low fraction unbound as little free substance. Take `Cc1ccc(NC(=O)c2ccc(P(C)(=O)O)cc2)cc1Nc1nccc(-c2cccnc2)n1`: the log distribution coefficient (logD) in data set [3] is 0.6; in data set [4] it was -0.6. In addition, the half-life at 1 µM in data set [5] is more than 2.17 h. Further, the hepatic extraction ratio at 1 µM in [6] is less than 0.23. Further, the figures for the thermodynamic solubility at 24 h in data set [7] and in data set [8] were more than 115 µg/mL and more than 10000 µg/mL, respectively. Moreover, the Papp A→B at 2 h in data set [9] is less than 0.1 ×10⁻⁶ cm/s. The unbound share (fraction unbound) in data set [12] was 0.119.
`O=P1(c2ccc(C(F)(F)F)cc2)CCNCC1` came in with a negative-log Kb (pKb) in [1] of 6.9. In data set [2], this molecule came in with a Drug degradation of less than 10%. For the same molecule, the logD in data set [3] amounted to 0; in data set [4], 0.5. Also, the half-life at 1 µM in data set [5] was more than 2.17 h. Besides, the hepatic extraction ratio at 1 µM in data set [6] is less than 0.23. Besides, the thermodynamic solubility at 24 h in data set [7] is more than 61 µg/mL; in data set [8] it was 28000 µg/mL (≈ 106 mM). This molecule came in with a Papp A→B at 2 h in [9] of 13 ×10⁻⁶ cm/s. The efflux ratio at 2 h in data set [10] was determined as 1.1. For the same molecule, the degraded at 168 h in [11] was less than 10%.
The molecule `CNS(=N)(=O)c1ccc(C(F)(F)F)cc1` (configuration not stated) registered a pKb in [1] of 2.4. Also, the logD in data set [3] amounted to 0.8; in data set [4] it was 1. In addition, the values for the thermodynamic solubility at 24 h in data set [7] and in data set [8] were more than 54 µg/mL and 6900 µg/mL (≈ 29 mM), respectively. In data set [9], this molecule gave a Papp A→B at 2 h of 70 ×10⁻⁶ cm/s. Besides, the efflux ratio at 2 h in data set [10] worked out at 0.9.
In the case of `O=P1(c2ccc(C(F)(F)F)cc2)NCCCN1`, the degraded at 24 h in data set [13] is more than 90%. The same molecule came in with a Drug degradation in data set [2] of less than 10%. Moreover, in data set [4], the pH-dependent lipophilicity (logD) worked out at 1.1. Besides, the half-life at 1 µM in [5] was more than 2.17 h. Further, the hepatic extraction ratio at 1 µM in [6] was less than 0.23. The solubility (thermodynamic) at 24 h is more than 61 µg/mL in data set [7] and 12300 µg/mL (≈ 46.6 mM) in data set [8]. Further, the apical-to-basolateral permeability (Papp A→B) at 2 h in [9] amounted to 42 ×10⁻⁶ cm/s. Further, the efflux ratio at 2 h in data set [10] was found to be 0.7.
As for `CN1CCN(C)P1(=O)c1ccc(C(F)(F)F)cc1`, the degraded at 24 h in [13] is more than 90%. In addition, in [2], the Drug degradation is given as less than 10%. In addition, the log distribution coefficient (logD) in [4] is 2. Also, the solubility (thermodynamic) at 24 h in [7] was more than 64 µg/mL; in data set [8] it was more than 30000 µg/mL.
As to `CCOP(=O)(O)c1ccc(C(=O)Nc2ccc(C)c(Nc3nccc(-c4cccnc4)n3)c2)cc1`, the logD was 1 in data set [3] and -0.6 in data set [4]. In data set [5], this molecule registered a half-life at 1 µM of more than 2.17 h. In addition, the hepatic extraction ratio at 1 µM in data set [6] is less than 0.23. Further, the solubility (thermodynamic) at 24 h in data set [7] is more than 122 µg/mL; in data set [8], 1100 µg/mL (≈ 2.25 mM). In addition, the Papp A→B at 2 h in data set [9] is less than 0.1 ×10⁻⁶ cm/s. In data set [12], this molecule showed a fraction unbound of 0.046.
Take `CCOP(=O)(OCC)c1ccc(C(F)(F)F)cc1`: the Drug degradation in data set [2] is on record as less than 10%. The results for the logD in data set [3] and in data set [4] were 3.4 and 3.2, respectively. In addition, the half-life at 1 µM in [5] was more than 2.17 h. In [6], the hepatic extraction ratio at 1 µM was less than 0.23. Further, the solubility (thermodynamic) at 24 h was more than 61 µg/mL in data set [7] and 1300 µg/mL (≈ 4.61 mM) in [8]. In [9], this molecule yielded an apical-to-basolateral permeability (Papp A→B) at 2 h of 95 ×10⁻⁶ cm/s. Also, the efflux ratio at 2 h in data set [10] stood at 0.6. Also, the degraded at 168 h in data set [11] is less than 10%.
`O=S1(c2ccc(C(F)(F)F)cc2)=NCCCC1` (configuration not stated) registered a pKb in [1] of 3.8. Further, the results for the pH-dependent lipophilicity (logD) in data set [3] and in data set [4] were 0.1 and 1.8, respectively. Moreover, the thermodynamic solubility at 24 h in [7] was more than 59 µg/mL; in data set [8], 4700 µg/mL (≈ 17.9 mM). This molecule showed an apparent permeability from apical to basolateral (Papp A→B) at 2 h in data set [9] of 84 ×10⁻⁶ cm/s. The efflux ratio at 2 h in [10] was 0.7.
On to `O=P1(c2ccc(C(F)(F)F)cc2)CCC1`, for which, in data set [2], the Drug degradation is reported as less than 10%. Besides, the figures for the logD in data set [3] and in [4] were 1.8 and 1.6, respectively. This molecule came in with a half-life at 1 µM in data set [5] of more than 2.17 h. The hepatic extraction ratio at 1 µM in data set [6] is less than 0.23. For the same molecule, the thermodynamic solubility at 24 h in data set [7] is more than 53 µg/mL; in [8] it was 24500 µg/mL (≈ 105 mM). This molecule also showed a Papp A→B at 2 h in [9] of 78 ×10⁻⁶ cm/s. Further, the efflux ratio at 2 h in data set [10] came out at 0.8. This molecule also displayed a degraded at 168 h in [11] of less than 10%.
As to `COP(=O)(OC)c1ccc(C(F)(F)F)cc1`, the Drug degradation in [2] is listed as less than 10%. Also, the logD in data set [3] came to 2.5; in data set [4] it was 2.2. The molecule also displayed a half-life at 1 µM in data set [5] of more than 2.17 h. In addition, the hepatic extraction ratio at 1 µM in data set [6] was less than 0.23. Moreover, the solubility (thermodynamic) at 24 h in data set [7] came out at 50 µg/mL (≈ 0.197 mM); in data set [8], 10100 µg/mL (≈ 39.7 mM). The molecule also showed a Papp A→B at 2 h in data set [9] of 85 ×10⁻⁶ cm/s. Also, in data set [10], the efflux ratio at 2 h is 0.5. In data set [11], this molecule displayed a degraded at 168 h of less than 10%.
In the case of `Cc1ccc(NC(=O)c2ccc(P(=O)(O)O)cc2)cc1Nc1nccc(-c2cccnc2)n1`, the pH-dependent lipophilicity (logD) is 0.4 in data set [3] and -1 in data set [4]. In data set [5], this molecule returned a half-life at 1 µM of more than 2.17 h. Moreover, the hepatic extraction ratio at 1 µM in [6] is less than 0.23. Further, the solubility (thermodynamic) at 24 h in data set [7] is more than 115 µg/mL; in [8], 700 µg/mL (≈ 1.52 mM). Moreover, the apparent permeability from apical to basolateral (Papp A→B) at 2 h in data set [9] is less than 0.3 ×10⁻⁶ cm/s. In [12], this molecule had a fraction unbound of 0.021.
Take `CN1CCCN(C)P1(=O)c1ccc(C(F)(F)F)cc1`: the degraded at 24 h in data set [13] is more than 90%. The molecule also returned a Drug degradation in data set [2] of less than 10%. Further, the log distribution coefficient (logD) in data set [3] came to 3; in [4], 2.7. The molecule also showed a half-life at 1 µM in data set [5] of more than 2.17 h. The hepatic extraction ratio at 1 µM in [6] was less than 0.23. The values for the solubility (thermodynamic) at 24 h in data set [7] and in data set [8] were more than 68 µg/mL and 11100 µg/mL (≈ 38 mM), respectively. This molecule registered an apical-to-basolateral permeability (Papp A→B) at 2 h in data set [9] of 81 ×10⁻⁶ cm/s. Further, in [10], the efflux ratio at 2 h was 0.5.
With `CS(=N)(=O)c1ccc(C(F)(F)F)cc1` (configuration not stated), the pKb in [1] turned out to be 2.5. Moreover, the log distribution coefficient (logD) in data set [3] was 0.8; in data set [4] it was 0.9. For the same molecule, the solubility (thermodynamic) at 24 h in data set [7] is more than 50 µg/mL; in data set [8] it was 9100 µg/mL (≈ 40.8 mM). The Papp A→B at 2 h in [9] amounted to 88 ×10⁻⁶ cm/s. For the same molecule, the efflux ratio at 2 h in data set [10] is 0.7.
Take `CN1CCCOP1(=O)c1ccc(C(F)(F)F)cc1` (configuration not stated): the degraded at 24 h in data set [13] was more than 90%. Also, the Drug degradation in data set [2] is recorded as less than 10%. In addition, the results for the logD in data set [3] and in data set [4] were 2.5 and 1.9, respectively. In addition, the half-life at 1 µM in data set [5] is more than 2.17 h. Also, the hepatic extraction ratio at 1 µM in data set [6] was less than 0.23. Further, the thermodynamic solubility at 24 h in data set [7] worked out at 53 µg/mL (≈ 0.19 mM); in data set [8] it was 7500 µg/mL (≈ 26.9 mM). Further, the apparent permeability from apical to basolateral (Papp A→B) at 2 h in data set [9] was determined as 64 ×10⁻⁶ cm/s. Besides, in [10], the efflux ratio at 2 h amounted to 0.5.
